According to patent US4120955A, “Method for production of kanamycin C and its derivatives” (Zaidan Hojin Biseibutsu Kagaku Kenkyu Kai, priority 1976, dated 1978):
Converted amounts (≈) assume the structure as drawn. “Also recorded” adds a separate entry of the source. Like-named read-outs stand apart in the source and are kept apart here.

Legend:
[1] = test system: Escherichia coli LA 290 R56; test: Minimum inhibitory concentration, serial dilution method; type: cell-based; settings: LA290R56, 18 h, read-out: Minimum Inhibitory Concentration
Description: (§1) The minimum inhibitory concentrations (mcg/ml) of kanamycin C, 3'-deoxykanamycin C and 3',4'-dideoxykanamycin C against various microorganisms were determened according to serial dilution method using nutrient agar medium at 37° C., the estimation being effected after 18 hours incubation.

[2] = test system: Klebsiella pneumoniae 22 No. 3038; test: as above; type: cell-based
Description: as §1

Escherichia coli W 677 = test: as above; type: cell-based
Description: as §1

[3] = test system: Pseudomonas aeruginosa GN 315; test: as above; type: cell-based
Description: as §1

Escherichia coli K-12 = test: as above; type: cell-based
Description: as §1

[4] = test system: Pseudomonas aeruginosa A3; test: as above; type: cell-based; settings: nutrient agar, 37° C., 18 hours, P. aeruginosa A3
Description: as §1

[5] = test system: Pseudomonas aeruginosa No. 12; test: as above; type: cell-based
Description: as §1

[6] = test system: Escherichia coli LA 290 R64; test: as above; type: cell-based; settings: LA290R64, 18 h, read-out: Minimum Inhibitory Concentration
Description: as §1

Escherichia coli K-12 R5 = test: as above; type: cell-based; settings: K12R5, 18 h, read-out: Minimum Inhibitory Concentration
Description: as §1

[7] = test system: Staphylococcus aureus FDA 209P; test: as above; type: cell-based; settings: FDA209P, read-out: Minimum Inhibitory Concentration
Description: as §1

[8] = test system: Escherichia coli K-12 ML 1410; test: as above; type: cell-based; settings: K12ML1410, nutrient agar, 37° C., 18 hours, E. coli K-12 ML 1410
Description: as §1

[9] = test system: Escherichia coli LA 290 R55; test: as above; type: cell-based; settings: LA290R55, 18 h, read-out: Minimum Inhibitory Concentration
Description: as §1

[10] = test system: Escherichia coli K-12 ML 1410 R81; test: as above; type: cell-based; settings: 18 h, read-out: Minimum Inhibitory Concentration
Description: as §1

[11] = test system: Escherichia coli K-12 ML 1630; test: as above; type: cell-based; settings: K12ML1630, nutrient agar, 37° C., 18 hours, E. coli K-12 ML 1630
Description: as §1

[12] = test system: Pseudomonas aeruginosa TI-13; test: as above; type: cell-based; settings: TI13, 18 h, read-out: Minimum Inhibitory Concentration
Description: as §1

[13] = test system: Escherichia coli K-12 ML 1629; test: as above; type: cell-based
Description: as §1

[14] = test system: Escherichia coli JR 66/W677; test: as above; type: cell-based
Description: as §1

[15] = test system: Pseudomonas aeruginosa H 11; test: as above; type: cell-based; settings: H11, 18 h, read-out: Minimum Inhibitory Concentration
Description: as §1

Escherichia coli NIHJ = test: as above; type: cell-based; settings: read-out: Minimum Inhibitory Concentration
Description: as §1

[16] = test system: Klebsiella pneumoniae PCI 602; test: as above; type: cell-based
Description: as §1

99 = test: as above; type: cell-based; settings: 18 h, read-out: Minimum Inhibitory Concentration
Description: as §1

[17] = test system: Mycobacterium smegmatis ATCC 607; test: as above; type: cell-based; settings: Mycolicibacterium smegmatis, read-out: Minimum Inhibitory Concentration
Description: as §1

[18] = test system: aminoglycoside 6'-acetyltransferases; test: Inactivation by aminoglycoside 6'-acetyltransferases; type: biochemical
[19] = test system: resistant bacteria which produce 3'-phosphotransferases; settings: known deoxykanamycin B derivatives; cited from earlier work
in vivo = settings: mouse, iv
[20] = test system: resistant strains which produce 6'-acetyltransferases, for example Pseudomonas aeruginosa GN315; settings: known deoxykanamycin B derivatives; cited from earlier work
[21] = test system: aminoglycoside 6'-acetyltransferases; settings: known kanamycins; cited from earlier work
[22] = GN315, 18 h, read-out: Minimum Inhibitory Concentration
[23] = NO.12, 18 h, read-out: Minimum Inhibitory Concentration
[24] = K12ML1629, 18 h, read-out: Minimum Inhibitory Concentration
[25] = nutrient agar, 37° C., 18 hours, K. pneumoniae 22 No. 3038, read-out: Minimum Inhibitory Concentration
[26] = W677, nutrient agar, 37° C., 18 hours, E. coli W 677, read-out: Minimum Inhibitory Concentration
[27] = K12, nutrient agar, 37° C., 18 hours, E. coli K-12, read-out: Minimum Inhibitory Concentration
[28] = nutrient agar, 37° C., 18 hours, S. aureus FDA 209P
[29] = JR66/W677, nutrient agar, 37° C., 18 hours, E. coli JR 66/W677, read-out: Minimum Inhibitory Concentration
[30] = PCI602, nutrient agar, 37° C., 18 hours, K. pneumoniae PCI 602, read-out: Minimum Inhibitory Concentration
[31] = ATCC607, nutrient agar, 37° C., 18 hours, M. smegmatis ATCC 607

SMILES	MIC [1]	MIC [3, 22]	MIC [4]	MIC [5, 23]	MIC [6]	MIC [8]	MIC [9]	MIC [10]	MIC [11]	MIC [12]	MIC [13, 24]	MIC (Escherichia coli NIHJ; 18 h)	MIC 99	MIC [2, 25]	MIC (Escherichia coli W 677; [26])	MIC (Escherichia coli K-12; [27])	MIC [7, 28]	MIC [14, 29]	MIC [16, 30]	MIC [17, 31]	other results
NC1CC(N)C(OC2OC(CO)C(O)C(N)C2O)C(O)C1OC1OC(CO)C(O)C(O)C1N (stereo not drawn) [Kanamycin C, kanamycin C]	25 mg/L (≈ 51.6 µM)	> 100 mg/L	> 100 mg/L	100 mg/L (≈ 206 µM)	25 mg/L (≈ 51.6 µM)	6.25 mg/L (≈ 12.9 µM)	> 100 mg/L	> 100 mg/L	> 100 mg/L	> 100 mg/L	> 100 mg/L	3.13 mg/L (≈ 6.46 µM)	> 100 mg/L								MIC ([2]; 22NO.3038, 18 h, read-out: Minimum Inhibitory Concentration): > 100 mg/L; MIC (Escherichia coli W 677; W677, 18 h, read-out: Minimum Inhibitory Concentration): 3.13 mg/L (≈ 6.46 µM); MIC (Escherichia coli K-12; K12, 18 h, read-out: Minimum Inhibitory Concentration): 3.13 mg/L (≈ 6.46 µM); MIC (Escherichia coli K-12 R5): 3.13 mg/L (≈ 6.46 µM); MIC ([7]; 18 h): 1.56 mg/L (≈ 3.22 µM); MIC ([14]; JR66/W677, 18 h, read-out: Minimum Inhibitory Concentration): > 100 mg/L; MIC [15]: > 100 mg/L; MIC ([16]; PCI602, 18 h, read-out: Minimum Inhibitory Concentration): 3.13 mg/L (≈ 6.46 µM); MIC ([17]; ATCC607, 18 h): 12.5 mg/L (≈ 25.8 µM); inactivation by 6'-acetyltransferases [18]: inherently cannot be inactivated
NCC1OC(OC2C(N)CC(N)C(OC3OC(CO)C(O)C(N)C3O)C2O)C(N)CC1O (stereo not drawn) [DKMB, 3'-deoxykanamycin B, reference compound]	3.13 mg/L (≈ 6.69 µM)	100 mg/L (≈ 214 µM)	1.56 mg/L (≈ 3.34 µM)	0.78 mg/L (≈ 1.67 µM)	3.13 mg/L (≈ 6.69 µM)	1.56 mg/L (≈ 3.34 µM)	25 mg/L (≈ 53.5 µM)	1.56 mg/L (≈ 3.34 µM)	1.56 mg/L (≈ 3.34 µM)	0.78 mg/L (≈ 1.67 µM)	1.56 mg/L (≈ 3.34 µM)	0.78 mg/L (≈ 1.67 µM)	1.56 mg/L (≈ 3.34 µM)	50 mg/L (≈ 107 µM)	0.39 mg/L (≈ 0.834 µM)	0.39 mg/L (≈ 0.834 µM)	< 0.2 mg/L	50 mg/L (≈ 107 µM)	0.39 mg/L (≈ 0.834 µM)	0.39 mg/L (≈ 0.834 µM)	activity against resistant bacteria producing aminoglycoside 3'-phosphotransferases [19]: active; LD50 (in vivo): 159 mg/kg; growth inhibition of resistant bacteria producing 6'-acetyltransferases [20]: not able to inhibit the growth; inactivation (acetylation of the 6'-amino group) by 6'-acetyltransferases [21]: can be inactivated; also recorded: acetylate the 6'-amino group
NCC1CCC(N)C(OC2C(N)CC(N)C(OC3OC(CO)C(O)C(N)C3O)C2O)O1 (stereo not drawn) [DKB, 3',4'-dideoxykanamycin B, reference compound]	12.5 mg/L (≈ 27.7 µM)		1.56 mg/L (≈ 3.45 µM)		6.25 mg/L (≈ 13.8 µM)	1.56 mg/L (≈ 3.45 µM)	50 mg/L (≈ 111 µM)	1.56 mg/L (≈ 3.45 µM)	0.78 mg/L (≈ 1.73 µM)	1.56 mg/L (≈ 3.45 µM)			3.13 mg/L (≈ 6.93 µM)	100 mg/L (≈ 221 µM)	0.2 mg/L (≈ 0.443 µM)	0.78 mg/L (≈ 1.73 µM)	< 0.2 mg/L	50 mg/L (≈ 111 µM)	0.39 mg/L (≈ 0.864 µM)	0.39 mg/L (≈ 0.864 µM)	MIC ([3]; GN315, nutrient agar, 37° C., 18 hours, P. aeruginosa GN 315, read-out: Minimum Inhibitory Concentration): > 100 mg/L; MIC ([5]; nutrient agar, 37° C., 18 hours, P. aeruginosa No. 12, read-out: Minimum Inhibitory Concentration): 0.78 mg/L (≈ 1.73 µM); MIC ([13]; K12ML1629, nutrient agar, 37° C., 18 hours, E. coli K-12 ML 1629, read-out: Minimum Inhibitory Concentration): 0.78 mg/L (≈ 1.73 µM); MIC (Escherichia coli NIHJ; nutrient agar, 37° C., 18 hours, E. coli NIHJ): 0.39 mg/L (≈ 0.864 µM); growth inhibition of resistant bacteria producing 6'-acetyltransferases [20]: not able to inhibit the growth; inactivation (acetylation of the 6'-amino group) by 6'-acetyltransferases [21]: can be inactivated; also recorded: acetylate the 6'-amino group
